Values quoted from earlier work as cited in patent US20050123615A1, “Controlled release dosage forms of azithromycin” (Pfizer Inc, priority 2003, published 2005).

Conditions: 3,995 human patients, all dose levels combined, oral

patients reporting abdominal pain: 2.5%
patients reporting diarrhea: 3.6%
patients reporting nausea: 2.6%
Compound: CC[C@H]1OC(=O)[C@H](C)[C@@H](O[C@H]2C[C@@](C)(OC)[C@@H](O)[C@H](C)O2)[C@H](C)[C@@H](O[C@@H]2O[C@H](C)C[C@H](N(C)C)[C@H]2O)[C@](C)(O)C[C@@H](C)CN(C)[C@H](C)[C@@H](O)[C@]1(C)O [azithromycin, 9a-aza-9a-methyl-9-deoxo-9a-homoerythromycin A]
patients reporting GI side effects: 9.6%
